Measurements published in PubChem BioAssay AID1963432 (Molecular Pharmacology Branch, DTP, NCI, 2024).

Tested on: SYO-1 complex spheroid growth, percent test/control
Test: Anticancer human tumor SYO-1 cell line growth inhibition [Asc];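 further: compound exposure lasted 7 days after spheroids grew 3 days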;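 on viability, T/C: 100% = DMSO vehicle control viability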
Settings: for IC50: curve of first compound; for viability, T/C: stronger effect = lower value
Summary of the method: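 Stromal components (HUVEC and hMSC) are co-assembled with the cancer cells into multicellular spheroids. Drugs are then added singly or paired, at concentrations falling by half-log increments from a clinically achievable maximum, capped at 10 microM without known Cmax.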

[1] = second compound 0.0316 µM, first compound 0.0316 µM
[2] = second compound 0.0316 µM, first compound 0.1 µM
[3] = second compound 0.0316 µM, first compound 0.316 µM
[4] = second compound 0.0316 µM, first compound 1 µM
[5] = second compound 0.1 µM, first compound 0.0316 µM
[6] = second compound 0.1 µM, first compound 0.1 µM
[7] = second compound 0.1 µM, first compound 0.316 µM
[8] = second compound 0.1 µM, first compound 1 µM
[9] = second compound 0.316 µM, first compound 0.0316 µM
[10] = second compound 0.316 µM, first compound 0.1 µM
[11] = second compound 0.316 µM, first compound 0.316 µM
[12] = second compound 0.316 µM, first compound 1 µM
[13] = second compound 1 µM, first compound 0.0316 µM
[14] = second compound 1 µM, first compound 0.1 µM
[15] = second compound 1 µM, first compound 0.316 µM
[16] = second compound 1 µM, first compound 1 µM

`CCN1CCN(Cc2ccc(Nc3ncc(F)c(-c4cc(F)c5nc(C)n(C(C)C)c5c4)n3)nc2)CC1` + CNC(C)C(=O)NC1CN(S(=O)(=O)c2cccc(S(=O)(=O)N3CCC4CCC(C(=O)NC(c5ccccc5)c5ccccc5)N4C(=O)C(NC(=O)C(C)NC)C3)c2)CCC2CCC(C(=O)NC(c3ccccc3)c3ccccc3)N2C1=O was tested, and the IC50 (second compound 0.01 µM) was > 1 µM, the IC50 (second compound 0.0316 µM) was > 1 µM and the IC50 (second compound 0.1 µM) was > 1 µM. For the same molecule, the IC50 (second compound 0.316 µM) was > 1 µM, the IC50 (second compound 1 µM) was > 1 µM and the viability, T/C (second compound 0.01 µM, first compound 0.00316 µM) was 110%. The viability, T/C (second compound 0.01 µM, first compound 0.01 µM) was 114%, the viability, T/C (second compound 0.01 µM, first compound 0.0316 µM) was 108% and the viability, T/C (second compound 0.01 µM, first compound 0.1 µM) was 111%. The viability, T/C (second compound 0.01 µM, first compound 0.316 µM) was 109%, the viability, T/C (second compound 0.01 µM, first compound 1 µM) was 116% and the viability, T/C (second compound 0.0316 µM, first compound 0.00316 µM) was 101%. For the same molecule, the viability, T/C (second compound 0.0316 µM, first compound 0.01 µM) was 101%, the viability, T/C [1] was 105% and the viability, T/C [2] was 110%. It also gave a viability, T/C [3] of 112%, a viability, T/C [4] of 114% and a viability, T/C (second compound 0.1 µM, first compound 0.00316 µM) of 102%. It also gave a viability, T/C (second compound 0.1 µM, first compound 0.01 µM) of 101%, a viability, T/C [5] of 96.7% and a viability, T/C [6] of 106%. The viability, T/C [7] was 105%, the viability, T/C [8] was 108% and the viability, T/C (second compound 0.316 µM, first compound 0.00316 µM) was 97.6%. It also gave a viability, T/C (second compound 0.316 µM, first compound 0.01 µM) of 103%, a viability, T/C [9] of 108% and a viability, T/C [10] of 100%. It also gave a viability, T/C [11] of 109%, a viability, T/C [12] of 115% and a viability, T/C (second compound 1 µM, first compound 0.00316 µM) of 101%. The viability, T/C (second compound 1 µM, first compound 0.01 µM) was 101%, the viability, T/C [13] was 103% and the viability, T/C [14] was 110%. The viability, T/C [15] was 101% and the viability, T/C [16] was 101%.
`C=CC(=O)N1CCN(c2nc(=O)n(-c3c(C)ccnc3C(C)C)c3nc(-c4c(O)cccc4F)c(F)cc23)C(C)C1` (configuration not stated) + Cc1c(S(C)(=O)=O)c(-c2cc(F)cc(N3CCN(c4ccc(NS(=O)(=O)c5ccc(NC(CCN6CCC(C(=O)OCCCP(=O)(O)O)CC6)CSc6ccccc6)c(S(=O)(=O)C(F)(F)F)c5)cc4)CC3)c2)c(-c2ccc(Cl)cc2)n1C(C)C was tested, and the IC50 (second compound 0.0316 µM) was > 10 µM, the IC50 (second compound 0.1 µM) was > 10 µM and the IC50 (second compound 0.316 µM) was > 10 µM. For the same molecule, the IC50 (second compound 1 µM) was > 10 µM, the IC50 (second compound 3.16 µM) was > 10 µM and the IC50 (second compound 10 µM) was > 10 µM. It also gave a viability, T/C [1] of 105%, a viability, T/C [2] of 100% and a viability, T/C [3] of 100%. For the same molecule, the viability, T/C [4] was 106%, the viability, T/C (second compound 0.0316 µM, first compound 3.16 µM) was 103% and the viability, T/C (second compound 0.0316 µM, first compound 10 µM) was 90.7%. It also gave a viability, T/C [5] of 114%, a viability, T/C [6] of 103% and a viability, T/C [7] of 93.4%. The viability, T/C [8] was 99.9%, the viability, T/C (second compound 0.1 µM, first compound 3.16 µM) was 99.7% and the viability, T/C (second compound 0.1 µM, first compound 10 µM) was 87%. The viability, T/C [9] was 98.3%, the viability, T/C [10] was 96.9% and the viability, T/C [11] was 101%. For the same molecule, the viability, T/C [12] was 102%, the viability, T/C (second compound 0.316 µM, first compound 3.16 µM) was 88.3% and the viability, T/C (second compound 0.316 µM, first compound 10 µM) was 83.4%. The viability, T/C [13] was 94.4%, the viability, T/C [14] was 94% and the viability, T/C [15] was 99.2%. For the same molecule, the viability, T/C [16] was 100%, the viability, T/C (second compound 1 µM, first compound 3.16 µM) was 90.7% and the viability, T/C (second compound 1 µM, first compound 10 µM) was 83.6%. It also gave a viability, T/C (second compound 3.16 µM, first compound 0.0316 µM) of 91.5%, a viability, T/C (second compound 3.16 µM, first compound 0.1 µM) of 86.5% and a viability, T/C (second compound 3.16 µM, first compound 0.316 µM) of 93.2%. It also gave a viability, T/C (second compound 3.16 µM, first compound 1 µM) of 96.5%, a viability, T/C (second compound 3.16 µM, first compound 3.16 µM) of 87.9% and a viability, T/C (second compound 3.16 µM, first compound 10 µM) of 81%. For the same molecule, the viability, T/C (second compound 10 µM, first compound 0.0316 µM) was 90%, the viability, T/C (second compound 10 µM, first compound 0.1 µM) was 81.4% and the viability, T/C (second compound 10 µM, first compound 0.316 µM) was 83.9%. The viability, T/C (second compound 10 µM, first compound 1 µM) was 79.5%, the viability, T/C (second compound 10 µM, first compound 3.16 µM) was 89.9% and the viability, T/C (second compound 10 µM, first compound 10 µM) was 76.1%.
